{"source": "patent US4053604A", "about": "(priority 1975, dated 1977)", "key": {"[1]": {"assay": "induction time of rats exposed to halothane anesthesia (loss of righting reflex)", "type": "in vivo, male albino rats (Sprague-Dawley)", "protocol": "(§1) The effects of Compound I on halothane-induced anesthesia were assessed using 20 rats for each dose or time interval determination. The experiments were performed on male albino rats (Sprague-Dawley) weighing from 180-220 g. A schematic representation of the apparatus used is illustrated in FIG. 1. The apparatus consists of a rectangular box made of transparent plastic (115 cm long × 28 cm high × 28 cm wide) which is divided into 4 equal chambers by perforated walls. The box rotates around a hollow axis through which gases can be delivered at several proportions from cylinders, through their respective flowmeters. An in-line halothane vaporizer is placed just before the gases reach the chambers. There is an air-tight door to every chamber through which two animals, one treated and one control, are introduced. The gases are delivered at one end of the box and suction is applied to the other end to take up the gases after flowing through the chambers. An in-line water manometer monitors the resulting pressure. This pressure is kept at 0-5 mm H2 O to make certain the gases in the anesthetic chambers remain at atmospheric pressure. The mixture of gases is delivered at a rate of 15 l/min. The inhalation anesthetic gases are delivered for ten minutes prior to the introduction of the animals into the chambers to assure an even distribution in the four chambers. The chambers rotate at four rev/min forcing the animals to tumble and allowing the experimenter to accurately time the loss and recovery of the righting reflex. Induction times are recorded as the time interval elapsed between the beginning of exposure of the animals to the gases and the moment in which they lose their righting reflex.\n(§2) Groups of control animals (four at a time) were subjected to halothane concentrations ranging from 0.5 to 2.5% in a mixture of 95% O2 -5% CO2, and the induction times thus obtained were used to calculate concentration-reponse curves. Since a certain time elapsed between putting the first and the last rat into their respective chambers, each animal was timed separately with a stopwatch. […] This intermediate concentration of halothane was then used to study the effects of increasing doses of the test compound on the induction times and anesthesia times.\n(§3) The animals were pretreated by administering the test compounds in dosages ranging from 10 to 500 μg/kg, i.v., at 5, 30, 60, 120, 240 and 360 minutes prior to their exposure to halothane. As soon as all animals lost their righting reflex, the O2 -halothane flow was discontinued and replaced by an equal flow of air. The animals were allowed to remain in the rotating chambers until they regained their righting reflex. Anesthesia times were determined as the interval between the time required to lose and the time to regain the righting reflex. Air flushing of the anesthetic chambers was performed after each determination and the entire procedure repeated with another group of animals for the determination of the effect of a new dose or concentration.\n(§4) Drugs used in this study include: droperidol, phenoperidine hydrochloride, halothane and Compound I in the form of its hydrochloride salt. Phenoperidine hydrochloride and Compound I (hydrochloride) were dissolved separately in a warm solution of 0.9% sodium chloride. Droperidol was suspended in saline with the aid of a drop ot Tween 80 (Tween 80 is a registered trademark for a complex mixture of polyoxyethylene ethers of mixed partial oleic esters of sorbitol anhydride). Dosages are expressed in this study as the salt form of the compound where applicable. When the experimental protocol called for the concomitant administration of two drugs, these were mixed in the syringe and administered intravenously. The drugs were injected in a volume of 0.1 ml/100 g body weight.\n(§5) The statistical analysis of the data was performed using Student's […]. […]"}, "[2]": {"assay": "tail-flick test, potentiation of the analgesic activity of phenoperidine", "type": "in vivo, albino mice", "source_text": "(§6) In the following experiments, phenoperidine and Compound I are used in the form of their hydrochloride salt and droperidol in the form of its free base in the presence of lactic acid for adjustment to pH to 3.4. Results are expressed on the basis of the form of the drug employed (i.e., free base or hydrochloride salt).\n(§7) Results of such tests using albino mice are illustrated by tables 1,2 and 3 in which the neuroleptic agent, droperidol, is included for comparative purposes.\nPotentiation of the Analgesic Activity (ED50) of Phenoperidine,\ni.e. 0.5 mg/kg, by varying Doses of Neuroleptic Agents.\n*PD50 refers to the dose of the neuroleptic which increased the\nanalgesic activity (ED50) of phenoperidine by 50%.\nModified Analgesic Activity of Phenoperidine in\nthe Presence of the Neuroleptic PD50. -\n*ED50 refers to the analgesic activity of phenoperidine after\npretreatment with a fixed dose (PD50) of the neuroleptic agents."}, "[3]": {"assay": "tail-flick test, analgesic activity of the agent alone", "type": "in vivo, albino mice", "details": "for ED50: Mus musculus, ip, 0.25 h, i.p., dose which increased analgesia by 50% when tested 15 minutes after drug administration", "source_text": "as §6, §7\n*The dose which increased analgesia by 50% when tested 15 minutes after […]"}, "[4]": {"assay": "respiratory minute volume and mean arterial blood pressure in rats", "type": "in vivo", "protocol": "These effects are less than those encountered with neuroleptics presently available for NLA as evidenced by laboratory experiments in rats in which these cardiovascular parameters are measured before and after the administration of Compound 1 and the neuroleptic agent droperidol, see Table 8.\nThe Effect of Compound 1 and Droperidol on Respiratory Minute Volume\nand Mean Arterial Blood Pressure"}, "[5]": {"assay": "behavioral changes and side effects in cebus monkeys", "type": "in vivo", "details": "for Behavioral Changes / Side Effects / Duration / Onset / times at which the side effect was observed: Phenoperidine, individual monkey"}, "[6]": {"assay": "anesthesia time of rats exposed to halothane anesthesia (recovery of righting reflex)", "type": "in vivo, male albino rats (Sprague-Dawley)", "details": "phenoperidine hydrochloride 25 μg/kg, i.v.; in words", "protocol": "as §1, §2, §3, §4, §5"}}, "note": "Where “and” joins values, the source holds several entries; their conditions need not be identical. Identical values can stand only once.", "data": [{"smiles": "FC(F)(F)C(Cl)Br", "note": "(centres unmarked) [halothane, reference compound]", "values": [{"measurement": "induction time, halothane alone (average)", "setting": "[1]; control experiments, 1% halothane in 95% O2-5% CO2", "result": 2.4, "unit": "min"}]}, {"smiles": "O=C(CCCN1CC=C(n2c(=O)[nH]c3ccccc32)CC1)c1ccc(F)cc1", "note": "[droperidol, reference compound]", "values": [{"measurement": "enhancement of analgesic activity of phenoperidine by concomitant administration", "setting": "[2]; in words", "result": "significantly enhanced"}, {"measurement": "relative potentiating activity, Compound I versus droperidol", "setting": "[2]; in words", "result": "equiactive"}, {"measurement": "PD50 of Neuroleptic Agent (dose which increased the analgesic activity (ED50) of phenoperidine by 50%)", "setting": "[2]; mouse, in vivo, ip", "result": "0.55 ± 0.10", "unit": "mg/kg"}, {"measurement": "ED50", "setting": "[3]", "result": "> 30", "unit": "mg/kg"}, {"measurement": "analgesic activity when given alone", "setting": "[3]; in words", "result": "no analgesic activity could be demonstrated"}, {"measurement": "Change in Mean B.P. as % of Control", "setting": "[4]; 25 μg/kg", "result": "-28.4 ± 4.6 % of Control"}, {"measurement": "Change in Minute Volume as % of Control", "setting": "[4]; 25 μg/kg", "result": "+13.9 ± 3.0 % of Control"}, {"measurement": "Change in Mean B.P. as % of Control", "setting": "[4]; 100 μg/kg", "result": "-15.4 ± 5.9 % of Control"}, {"measurement": "Change in Minute Volume as % of Control", "setting": "[4]; 100 μg/kg", "result": "+15.6 ± 6.2 % of Control"}, {"measurement": "Change in Mean B.P. as % of Control", "setting": "[4]; 250 μg/kg", "result": "-26.9 ± 3.2 % of Control"}, {"measurement": "Change in Minute Volume as % of Control", "setting": "[4]; 250 μg/kg", "result": "+27.3 ± 8.1 % of Control"}]}, {"smiles": "CCOC(=O)C1(c2ccccc2)CCN(CCC(O)c2ccccc2)CC1", "note": "(centres unmarked) [phenoperidine, 1-(3-hydroxy-3-phenylpropyl)-4-phenylisonipecotic acid ethyl ester, reference compound]", "values": [{"measurement": "ED50", "setting": "[3]", "result": "0.5 ± 0.1", "unit": "mg/kg"}, {"measurement": "undesirable side effects", "setting": "[5]; 50-100 μg/kg, in words", "result": "salivation and vomiting were consistently observed"}, {"measurement": "Behavioral Changes", "setting": "[5]; 10 μg/kg i.v.", "result": "None"}, {"measurement": "Side Effects", "setting": "[5]; 10 μg/kg i.v.", "result": "None"}, {"measurement": "Behavioral Changes", "setting": "[5]; 50 μg/kg i.v.", "result": "Sedation and None"}, {"measurement": "Duration", "setting": "[5]; 50 μg/kg i.v.", "result": "1 h and > 3 h"}, {"measurement": "Onset", "setting": "[5]; 50 μg/kg i.v.", "result": 5, "unit": "min"}, {"measurement": "Side Effects", "setting": "[5]; 50 μg/kg i.v.", "result": "Salivation and Vomit and None"}, {"measurement": "times at which the side effect was observed", "setting": "[5]; 50 μg/kg i.v.", "result": "15 min and 10 to 15 min"}, {"measurement": "times at which the side effect was observed", "setting": "[5]; 100 μg/kg i.v., Vomit", "result": "5 to 25 min and 20 to 45 min"}, {"measurement": "Behavioral Changes", "setting": "[5]; 100 μg/kg i.v.", "result": "Sedation"}, {"measurement": "Duration", "setting": "[5]; 100 μg/kg i.v.", "result": 1, "unit": "h"}, {"measurement": "Onset", "setting": "[5]; 100 μg/kg i.v.", "result": 5, "unit": "min"}, {"measurement": "Side Effects", "setting": "[5]; 100 μg/kg i.v.", "result": "Vomit"}, {"measurement": "doses producing the main beneficial effect (sedation) and undesirable side effects", "setting": "[5]; phenoperidine i.v.", "result": "0.05 to 0.1", "unit": "mg/kg"}, {"measurement": "effect on anesthesia time of rats anesthetized with halothane", "setting": "[6]", "result": "did not modify"}, {"measurement": "effect on induction time of rats anesthetized with halothane", "setting": "[1]; phenoperidine hydrochloride 25 μg/kg, i.v., in words", "result": "did not modify"}]}]}
